Data taken from patent publication US8338430B2, “N-substituted piperazines” (Dow AgroSciences, LLC., priority 2005, dated 2012).

Legend:
Type in all cases: in vivo
[1] = tested on: beet armyworm (Spodoptera exigua) larvae; assay: Beet armyworm mortality on artificial diet (LAPHEG); conditions: 168 h, 4000 μg/ml, with piperonyl butoxide (approx. 1:4), mortality seven days after treatment, read-out: LAPHEG: % mortality against beet armyworm on artificial diet
Description: (§1) The compounds identified in TABLE 2 were prepared using the procedures illustrated in the previous examples and these compounds were tested against beet armyworm, mosquito, fruit fly, and cotton aphid using protocols described after.
(§2) Compounds were evaluated on mosquito (Aedes aegypti) larvae, beet armyworm (Spodoptera exigua) larvae, fruit fly (Drosophila melanogaster) adults and cotton aphid (Aphis gossypi). Newly hatched mosquito larvae (about 50 larvae/well) in 96-well microtiter plates in 230 ul of water containing powdered liver/yeast extract (1 gr/100 ml) were treated with 20 ppm solution of the test compound. Following treatment the plates were covered with a lid and mortality was determined three days after treatment. Beet armyworm eggs (about 5 per well) were placed on artificial diet (in a 96-well microtiter plate) treated with a 4000 ppm solution of a test compound in combination with piperonyl butoxide (in approximate ratio of 1:4). After infestation, the plates were covered with a lid and mortality was determined seven days following treatment. Five-day old fruit fly adults (about 5/well) were placed in deep-well microtiter plates containing 250 ul/well of a 2% agar-10% sucrose mixture that had been treated with a 4000 ppm solution of a test compound. Following infestation, the plates were covered with a lid and mortality was determined three days after treatment. Treatments for the mosquito and armyworm were replicated six times each, that of the fruit fly three times each.

[2] = tested on: fruit fly (Drosophila melanogaster) adults; assay: Adult fruit fly mortality on artificial diet (DROSME); conditions: 72 h, 4000 μg/ml, mortality three days after treatment, read-out: DROSME: % mortality against adult fruit fly on artificial diet
Description: as §1, §2

[3] = tested on: mosquito (Aedes aegypti) larvae; assay: Mosquito larvae mortality (AEDSAE); conditions: 72 h, 20 μg/ml, mortality three days after treatment, read-out: AEDSAE: % mortality against mosquito larvae
Description: as §1, §2

[4] = tested on: cotton aphid (Aphis gossypi); assay: Cotton aphid foliar spray test on squash (CA 200); conditions: 72 h, squash cotyledons, 3 days, Corrected % Control (Abbott), read-out: CA 200: % control against cotton aphid in foliar spray tests
Description: The compounds identified in TABLE 2 were prepared using the procedures illustrated in the previous examples and these compounds were tested against beet armyworm, mosquito, fruit fly, and cotton aphid using protocols described after. […]
Squash with fully expanded cotyledon leaves were trimmed to one cotyledon per plant and infested with cotton aphid (wingless adult and nymph) 1 day prior to chemical application.
Each plant is examined before chemical application to ensure proper infestation (ca. 30-70 aphids per plant). Compounds (3 mg) were dissolved in 3 mL of acetone:methanol (50:50) solvent, forming stock solutions of 1000 ppm. The stock solutions were then diluted with 0.025% Tween 20 (in H2O) to make […]. A hand-held Devilbiss sprayer was used to apply the spray solutions until runoff to both sides of the squash cotyledon leaves. Four plants (4 replications) were used for each concentration of each compound. Reference plants (solvent check) were sprayed with 0.025% Tween 20 only. Treated plants were held in a holding room for 3 days at approximately 23° C. and 40% RH before the number of live aphids on each plant was recorded. Insecticidal activity was measured by Corrected % Control using Abbott's correction formula and presented in TABLE 2: Corrected % Control=100*(X−Y)/X • where X=No. of live aphids on solvent check plants • Y=No. of live aphids on treated plants

Structure (SMILES)	mortality at 4000 µg/mL [1]	mortality at 4000 µg/mL [2]	mortality at 20 µg/mL [3]	pest or weed control at 200 ppm [4]
Clc1cc2c(cc1CN1CCN(CCOc3ccccc3)CC1)OCO2 [Compound 103]	1 to 25%	1 to 25%	1 to 25%	50 to 100%
Clc1cc2c(cc1CN1CCN(CCc3ccccc3)CC1)OCO2 [Compound 104]	1 to 25%	50 to 100%	1 to 25%	50 to 100%
CC(=O)c1ccccc1C(=O)N1CCN(CCc2ccccc2C(F)(F)F)CC1 [Compound 105]	1 to 25%	1 to 25%	1 to 25%	50 to 100%
FC(F)(F)c1ccccc1CCN1CCN(Cc2ccc3c(c2)OCO3)CC1 [Compound 107]	1 to 25%	50 to 100%	1 to 25%	50 to 100%
COc1ccc(CN2CCN(CCc3ccccc3C(F)(F)F)CC2)c(Cl)c1OC [Compound 108]	1 to 25%	1 to 25%	1 to 25%	50 to 100%
O=C(c1ccc(-c2ccccn2)s1)N1CCN(CCc2ccccc2C(F)(F)F)CC1 [Compound 126]	1 to 25%	1 to 25%	1 to 25%	50 to 100%
O=C(COc1ccccc1)N1CCN(C(=O)OCc2ccccc2)CC1 [Compound 139]	26 to 49%	1 to 25%	1 to 25%	
O=C(OCc1ccccc1)N1CCN(C(=O)c2cccs2)CC1 [Compound 146]	1 to 25%	1 to 25%	1 to 25%	
O=C(c1ccc2ccccc2n1)N1CCN(CCc2ccccc2C(F)(F)F)CC1 [Compound 156]	1 to 25%	1 to 25%	1 to 25%	50 to 100%
O=C(OCc1ccccc1)N1CCN(C(=O)c2ccc3ccccc3n2)CC1 [Compound 159]	1 to 25%	1 to 25%	1 to 25%	
Cc1nn(C)c2sc(C(=O)N3CCN(CCc4ccccc4C(F)(F)F)CC3)cc12 [Compound 160]	1 to 25%	1 to 25%	1 to 25%	1 to 25%
Cc1nn(C)c2sc(C(=O)N3CCN(C(C)c4ccccc4)CC3)cc12 (stereo not drawn) [Compound 162]	1 to 25%	26 to 49%	1 to 25%	
O=C(OCc1ccccc1)N1CCN(Cc2ccc(Cl)nc2)CC1 [Compound 192]	1 to 25%	1 to 25%	1 to 25%	
COC(=O)c1cccc(CN2CCN(CCOc3ccccc3)CC2)c1 [Compound 303]	1 to 25%	26 to 49%	1 to 25%	
O=C(c1ccccc1)c1ccc(CN2CCN(C(=O)C3CC3)CC2)cc1 [Compound 321]	1 to 25%	1 to 25%	1 to 25%	
CC(CN1CCN(Cc2cc3c(cc2Cl)OCO3)CC1)c1ccccc1 (stereo not drawn) [Compound 333]	1 to 25%	50 to 100%	1 to 25%	50 to 100%
